Publication PMC7156612, “Olinciguat, an Oral sGC Stimulator, Exhibits Diverse Pharmacology Across Preclinical Models of Cardiovascular, Metabolic, Renal, and Inflammatory Disease” (Frontiers in Pharmacology, 2020)
pEC50, pIC50: −log10 of the molar value. “Also recorded” adds a separate entry of the source. Marks after values point to notes of the source that are not given here.

Columns and labels:
[1] = test system: vascular smooth muscle cells (VSMC) from rat aorta; test: Rat aorta vascular smooth muscle cell proliferation (3H-thymidine incorporation); type: cell-based; details: Rattus norvegicus, VSMC
Procedure: We explored the concentration response of olinciguat, tadalafil, and olinciguat in the presence of 1 μM tadalafil on rat aorta vascular smooth muscle proliferation, Tadalafil was used because it is a once-daily PDE5 inhibitor that, like the three-times-daily PDE5 inhibitor sildenafil, is approved for treatment of PAH and ED. Vascular smooth muscle cells (VSMC) from rat aorta (Lonza, R-ASM-580) were plated into a 96-well plate at 15,000 cells per well in DMEM:F12 containing 20% FBS and GA-1000 ([Gentamicin, Amphotericin B], Lonza, CC-40863) for 24 h at 37°C. Medium was removed and cells were washed once with 100 μl DMEM:F12 before adding 100 μl of DMEM:F12 and incubating for 24 h to induce quiescence. Cells were then cultured for 24 h in DMEM:F12 supplemented with 5% FBS, in the presence of test articles (vehicle, olinciguat, tadalafil) with 10 µM DETA. In the last 6 h, 0.2 μCi of ^3H-thymidine (American Radiolabeled Chemicals, ART 0178A) was added to each well to measure DNA synthesis by thymidine incorporation. Cells were washed once with HBSS and then trypsinized and transferred into FB filter plates (Millipore, MADVNOB). A rapid-filtration technique using a filtration apparatus (Millipore, MAVM0960R) with vacuum aspiration was used to harvest and rinse labeled cells (6× with 0.2 ml of chilled water). The radioactivity bound to the filters was counted with 80 µl of liquid scintillant (PerkinElmer, UltraGold MV, 6013159) in a scintillation counter (Perkin Elmer Microbeta instrument).
In the vascular smooth muscle cell proliferation experiment, a comparison between the IC50's for olinciguat alone vs oliniciguat in the presence of 1 µM tadalafil was performed by a two-tailed t-test using Log EC50 best fit values and SEs determined from a four-parameter nonlinear curve fit, assuming n=60 degrees of freedom.

[2] = ZSF1 rat model of metabolic syndrome and diabetic nephropathy; type: in vivo; details: male, rat, plasma, oral; obese ZSF1, enalapril + olinciguat 30 mg/kg/day in chow; read-out: average total plasma concentration of olinciguat at Week 10
Procedure: (§1) Lean (n=8, 370–420 g, 15 weeks) and obese (n=32, 500–630 g, 15 weeks) male ZSF1 rats were studied. Rats were treated with enalapril to reflect standard of care drug treatment for patients with diabetic kidney disease. Dose modeling based on allometric scaling relationships estimated that a 10 mg/day enalapril dose in humans (within usual dose range of 10–40 mg based on prescribing information) corresponds to 1 mg/kg/day in rats ([Nair and Jacob, 2016]). To measure hemodynamics in freely moving animals, ZSF1 obese rats were implanted with telemetry transmitters (HD-S10, Data Sciences International) at 9–10 weeks of age, as described above.
(§2) The study included a 10-day pretreatment period and a 10-week treatment period. There were five groups of rats in the study. The lean ZSF1 control group (lean control, n=8) and one obese group (obese control, n=8) were fed normal chow and drinking water throughout the 10-day pretreatment period and the 10-week treatment period. Three groups of obese rats were treated with enalapril in drinking water (equivalent to 3 mg/kg/day) throughout the 10-day pretreatment period and the 10-week treatment period. During the treatment period, these enalapril-treated obese rats were administered normal chow (ENP, n=8) or chow containing olinciguat targeting the dose of 10 mg/kg/day (ENP+OLI10, n=8) or 30 mg/kg/day (ENP+OLI30, n=8). Blood and 24-h urine samples were obtained from all animals at baseline (immediately prior to initiation of enalapril treatment), the end of the 10-day pretreatment period (Day 10) and at week 5 and week 10 of the treatment period. Plasma samples were obtained from all olinciguat-treated animals for measurement of olinciguat exposure at week 10. During week 9 of treatment, rats were fasted for 16 h overnight prior to determination of fasting blood glucose using the AlphaTRAK (Abbott) glucose monitoring system. Body weight was measured once every other week. At the end of the study, rats were anesthetized and perfused via the left ventricle with heparinized PBS (1 U/ml heparin) containing IBMX (1 mM). Organs were collected and weighed, and plasma was collected in EDTA tubes. For serum, blood was collected in serum separator tubes, maintained at room temperature for at least 30 min and centrifuged at 6,000 rpm for 10 min, and then stored at −80°C until analysis. Urine and serum samples were analyzed using the Randox Daytona Clinical Chemistry Analyzer (Randox, Kearneysville, WV) for urine protein, serum cholesterol and serum triglycerides. All measurements were performed in accordance with manufacturer's instructions.
(§3) For histology, one kidney from each rat was fixed in 10% formalin, then embedded in paraffin. Slides were prepared and stained with hematoxylin and eosin (H&E) and periodic-acid Schiff (PAS) for light microscopic analysis. Kidney sections were evaluated for the presence of glomerular pathology, tubular damage, interstitial inflammation, interstitial fibrosis, and vascular alterations. Severity-based scoring based on these evaluations was performed by a trained pathologist.
(§4) For the ZSF1 experiment, data are expressed as mean ± standard error of the mean (SEM).
(§5) In the ZSF1 study, change from baseline NT-proBNP, week 10 heart, kidney, and liver weight, urine volume, cholesterol, triglycerides, glucose, and renal histopathology sum score were analyzed by one-way ANOVA corrected for multiple comparisons using Tukey's method. Statistically significant differences vs the obese control and vs the ENP group are indicated in the results. MAP and UPE were analyzed by an ordinary two-way ANOVA with timepoint and treatment group as independent variables, followed by a Tukey's multiple comparisons test. Within each treatment group, significant differences vs baseline are indicated in the results. At week 10, statistically significant differences vs the obese control and vs the ENP control are also indicated in the results.

obese ZSF1 rats = test: as above; type: in vivo
Procedure: as §1, §2, §3, §4, §5

[3] = obese ZSF1, enalapril 3 mg/kg/day + olinciguat 30 mg/kg/day

NC(=O)[C@](O)(CNc1nc(-c2cc(-c3ccon3)n(Cc3ccccc3F)n2)ncc1F)C(F)(F)F [olinciguat, (R)-3,3,3-trifluoro-2-(((5-fluoro-2-(1-(2-fluorobenzyl)-5-(isoxazol-3-yl)-1H-pyrazol-3-yl)pyrimidin-4-yl)amino)methyl)-2-hydroxypropanamide]
pIC50 ([1]; 5% FBS, 10 µM DETA, 3H-thymidine incorporation, 95% CI 22.4 to 39 nM, read-out: IC50, VSMC proliferation, olinciguat alone): 7.53 | pEC50 ([1]; Table 2 summary, olinciguat alone, read-out: Rat vascular smooth muscle proliferation EC50, olinciguat concentration (range = 95% CI)): 7.41 to 7.65 | concentration at 10 weeks [2]: 510 to 610 nM | cholesterol, percent lower than obese control (obese ZSF1 rats; [3]): 41% | increase of proteinuria over 10 weeks (obese ZSF1 rats; [3]): 56% | liver weight (obese ZSF1 rats; [3]): ↓ liver weight | serum cholesterol at week 10 (obese ZSF1 rats; [3]): ↓ cholesterol | serum triglycerides at week 10 (obese ZSF1 rats; [3]): ↓ triglycerides | total kidney weight (obese ZSF1 rats; [3]): did not develop renal hypertrophy; also recorded: ↓ kidney weight | triglycerides, percent lower than obese control (obese ZSF1 rats; [3]): 52% | fasting blood glucose (obese ZSF1 rats; obese ZSF1, enalapril 3 mg/kg/day + olinciguat 30 mg/kg/day, week 9): ↓glucose | UPE at week 10 (obese ZSF1 rats; obese ZSF1, enalapril 3 mg/kg/day + olinciguat 30 mg/kg/day, obese control 1.42 ± 0.12): ↓ proteinuria | renal pathology sum score (obese ZSF1 rats; obese ZSF1, enalapril 3 mg/kg/day + olinciguat 30 mg/kg/day, p < 0.0001 vs obese control): significantly improved the composite renal histopathological score; also recorded: ↓ renal histopath | Olinciguat concentration (free) (obese ZSF1 rats; obese ZSF1, olinciguat 30 mg/kg/day, total plasma concentration x 1.0% free): 5.1–6.1 nM^e | glucose, percent lower (obese ZSF1 rats; obese ZSF1, treatment with olinciguat (discussion)): 43% | difference in MAP at end of treatment between enalapril+olinciguat 30 mg/kg and enalapril monotherapy groups (obese ZSF1 rats; obese ZSF1, week 10): −8^d mmHg
